Measured values: article PMC12415777, “Dose-dependent modulation of hepatic cytochrome P450 enzymes by tenvermectin: implications for medication safety and combination therapy” (Frontiers in Veterinary Science, 2025)
pIC50: −log10 of the molar value.

Columns and labels:
Type in all cases: biochemical
[1] = molecular target: T1, CYP2D2 (Rattus norvegicus, UniProt P10634); assay: Michaelis-Menten fit in rat liver microsomes, HPLC-fluorescence of dextrorphan; conditions: NADPH regeneration system, 0.05 M Tris-HCl pH 7.4, 30 min
T1 construct: gene Cyp2d26; native enzyme in rat liver microsomes; dextromethorphan to dextrorphan read-out
T1 sequence (P10634 1-500): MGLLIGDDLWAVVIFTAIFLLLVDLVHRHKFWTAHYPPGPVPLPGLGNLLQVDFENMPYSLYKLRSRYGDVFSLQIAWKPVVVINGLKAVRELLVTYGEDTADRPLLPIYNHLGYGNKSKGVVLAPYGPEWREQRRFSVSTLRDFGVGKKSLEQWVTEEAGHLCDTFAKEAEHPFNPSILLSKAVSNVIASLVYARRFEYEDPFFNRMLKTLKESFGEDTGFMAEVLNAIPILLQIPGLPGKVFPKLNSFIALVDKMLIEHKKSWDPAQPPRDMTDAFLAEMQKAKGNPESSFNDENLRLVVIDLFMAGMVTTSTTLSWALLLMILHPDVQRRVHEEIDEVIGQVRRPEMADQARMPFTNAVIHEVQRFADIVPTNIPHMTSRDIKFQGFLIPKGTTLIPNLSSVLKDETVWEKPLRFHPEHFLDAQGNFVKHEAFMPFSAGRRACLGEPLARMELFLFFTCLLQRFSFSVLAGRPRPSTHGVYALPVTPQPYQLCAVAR

[2] = tested on: T2, CYP1A1/2; assay: probe substrate conversion in rat liver microsomes, HPLC-fluorescence; conditions: ethoxyresorufin at about Km, NADPH regeneration system, 0.05 M Tris-HCl pH 7.4, 15 min; read-out: IC 50 / Positive control
T2 construct: native enzymes in rat liver microsomes; ethoxyresorufin O-deethylation (EROD) read-out
Text: probe substrate conversion in rat liver microsomes, HPLC-fluorescence on CYP1A1/2

[3] = molecular target: T3, CYP2B1 (Rattus norvegicus, UniProt P00176); assay: as above; conditions: benzyloxyresorufin at about Km, 5 μM α-BNF added to block CYP1A1/2, NADPH regeneration system, 0.05 M Tris-HCl pH 7.4, 15 min; read-out: IC 50 / Positive control
T3 construct: native enzyme in rat liver microsomes; benzyloxyresorufin O-dealkylation (BROD) read-out
T3 sequence (P00176 1-491): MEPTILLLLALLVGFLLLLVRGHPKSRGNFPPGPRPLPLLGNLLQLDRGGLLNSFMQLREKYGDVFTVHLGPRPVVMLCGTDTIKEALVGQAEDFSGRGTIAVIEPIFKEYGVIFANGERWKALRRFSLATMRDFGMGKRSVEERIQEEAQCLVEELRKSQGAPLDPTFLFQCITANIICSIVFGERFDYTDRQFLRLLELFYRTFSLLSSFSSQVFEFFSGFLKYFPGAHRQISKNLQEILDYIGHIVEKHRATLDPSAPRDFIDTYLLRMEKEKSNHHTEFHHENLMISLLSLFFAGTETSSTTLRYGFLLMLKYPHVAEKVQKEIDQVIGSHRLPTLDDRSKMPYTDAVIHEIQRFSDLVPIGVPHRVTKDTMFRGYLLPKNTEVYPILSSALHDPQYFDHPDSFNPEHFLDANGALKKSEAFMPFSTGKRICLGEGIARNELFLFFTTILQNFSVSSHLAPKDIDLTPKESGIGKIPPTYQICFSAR
Text: probe substrate conversion in rat liver microsomes, HPLC-fluorescence on CYP2B1

[4] = molecular target: T3, CYP2B1; assay: Michaelis-Menten fit in rat liver microsomes, HPLC-fluorescence of resorufin; conditions: NADPH regeneration system, 0.05 M Tris-HCl pH 7.4, 15 min, 5 μM α-BNF added to block CYP1A1/2
[5] = tested on: T4, CYP3A1/2; assay: probe substrate conversion in rat liver microsomes, HPLC-MS/MS; conditions: testosterone at about Km, NADPH regeneration system, 0.05 M Tris-HCl pH 7.4, 30 min; read-out: IC 50 / Positive control
T4 construct: native enzymes in rat liver microsomes; testosterone 6beta-hydroxylation read-out
Text: probe substrate conversion in rat liver microsomes, HPLC-MS/MS on CYP3A1/2

COc1ccc2c(c1)[C@]13CCCC[C@@H]1[C@H](C2)N(C)CC3 [DOM]
Km [1]: (D) dextromethorphan (DOM) (CYP2D2)

O=c1cc(-c2ccccc2)oc2c1ccc1ccccc12 [α-BNF]
pIC50 [2]: 5.74

CC(C)(C(=O)c1cccnc1)c1cccnc1 [MTY]
pIC50 [3]: 5.37

O=c1ccc2nc3ccc(OCc4ccccc4)cc3oc-2c1 [BR]
Km [4]: (B) benzyloxyresorufin (BR) (CYP2B1)

CC(=O)N1CCN(c2ccc(OCC3COC(Cn4ccnc4)(c4ccc(Cl)cc4Cl)O3)cc2)CC1 (centres unmarked) [KCZ]
pIC50 [5]: 6.33
